Laboratory results from patent US20250122182A1 (Isosterix, Inc., priority 2023, published 2025).

Molecular target: Recombinant KAT6A/MOZ (488-778) protein (Homo sapiens (Human), UniProt Q92794)
Assay: KAT6A AlphaLISA Inhibition Screening Assay
Assay type: biochemical
Conditions: for inhibition at 1 µM: read-out: Average Kat6A % inhibition @ 1 μM; for inhibition at 1 µM / Average Kat6A % inhibition @ 1 μM: 1 μM test compound; for inhibition at 10 µM: read-out: Average Kat6A % inhibition @ 10 μM; for inhibition at 10 µM / Average Kat6A % inhibition @ 10 μM: 10 μM test compound
Summary of the method: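 25 nM KAT6A (488-778) pre-incubated 60 or 10 min with compound (10-point, 3-fold from 10 μM), then 400 nM acetyl-CoA and 200 nM biotin-H3(1-21) peptide added for 120 min at RT in pH 8.0 Tris buffer with 330 nM TSA. Acetylation read by AlphaLISA (anti-acetyl-lysine acceptor/streptavidin donor beads); % inhibition vs vehicle.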

Recombinant KAT6A/MOZ (488-778) protein, sequence (Q92794 488-778): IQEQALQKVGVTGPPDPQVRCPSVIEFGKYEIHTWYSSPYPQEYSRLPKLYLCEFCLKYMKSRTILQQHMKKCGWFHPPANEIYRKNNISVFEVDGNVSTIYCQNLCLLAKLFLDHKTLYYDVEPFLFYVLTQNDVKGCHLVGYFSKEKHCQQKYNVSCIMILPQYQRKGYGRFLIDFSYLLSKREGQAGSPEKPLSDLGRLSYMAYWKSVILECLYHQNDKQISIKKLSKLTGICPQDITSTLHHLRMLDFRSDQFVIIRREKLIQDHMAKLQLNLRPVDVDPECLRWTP

SMILES | inhibition at 1 µM [%] | inhibition at 10 µM [%] | Average Kat6A % inhibition @ 1 μM [%] | Average Kat6A % inhibition @ 10 μM [%]
CC#CC(=O)N1Cc2cnn(Cc3cc(OC)c4c(NS(=O)(=O)c5cc(CC)ccc5OC)noc4c3)c2C1 [Syn. Ex. 11, N-(6-((5-(but-2-ynoyl)-5,6-dihydropyrrolo[3,4-c]pyrazol-1(4H)-yl)methyl)-4-methoxybenzo[d]isoxazol-3-yl)-5-ethyl-2-methoxybenzenesulfonamide] | 100 | 100 |  | 
CCc1ccc(OCCN2CCOC2=O)c(S(=O)(=O)Nc2noc3cc(Cn4cc(CNC(=O)OC)cn4)cc(OC)c23)c1 [Syn. Ex. 77, methyl ((1-((3-((5-ethyl-2-(2-(2-oxooxazolidin-3-yl)ethoxy)phenyl)sulfonamido)-4-methoxybenzo[d]isoxazol-6-yl)methyl)-1H-pyrazol-4-yl)methyl)carbamate] | 96 | 98 |  | 
CCc1ccc(OC)c(S(=O)(=O)Nc2noc3cc(Cn4cc(CNC(=O)C#CCO)cn4)cc(OC)c23)c1 [Syn. Ex. 49, N-((1-((3-((5-ethyl-2-methoxyphenyl)sulfonamido)-4-methoxybenzo[d]isoxazol-6-yl)methyl)-1H-pyrazol-4-yl)methyl)-4-hydroxybut-2-ynamide] | 94 | 100 |  | 
COc1cc(Cn2cc(CNS(C)(=O)=O)cn2)cc2onc(NS(=O)(=O)c3ccccc3OCc3ccccc3)c12 [Syn. Ex. 37, 2-(benzyloxy)-N-(4-methoxy-6-((4-(methylsulfonamidomethyl)-1H-pyrazol-1-yl)methyl)benzo[d]isoxazol-3-yl)benzenesulfonamide] | 100 | 100 |  | 
CCc1ccc(OC)c(S(=O)(=O)Nc2noc3cc(Cn4cc(CNC(=O)[C@H](C)F)cn4)cc(OC)c23)c1 (single isomer, unassigned) [Syn. Ex. 47b] | 96 | 100 |  | 
COc1ccc(C(C)(C)C)cc1S(=O)(=O)Nc1noc2cc(Cn3cc(CNS(C)(=O)=O)cn3)cc(OC)c12 [Syn. Ex. 33, 5-(tert-butyl)-2-methoxy-N-(4-methoxy-6-((4-(methylsulfonamidomethyl)-1H-pyrazol-1-yl)methyl)benzo[d]isoxazol-3-yl)benzenesulfonamide] | 96 | 100 |  | 
C=C(F)C(=O)NCc1cnn(Cc2cc(OC)c3c(NS(=O)(=O)c4cc(CC)ccc4OCC#N)noc3c2)c1 [Syn. Ex. 43, N-((1-((3-((2-(cyanomethoxy)-5-ethylphenyl)sulfonamido)-4-methoxybenzo[d]isoxazol-6-yl)methyl)-1H-pyrazol-4-yl)methyl)-2-fluoroacrylamide] | 96 | 98 |  | 
CCc1ccc(OCCO)c(S(=O)(=O)Nc2noc3cc(Cn4cc(CNC(=O)OC)cn4)cc(OC)c23)c1 [Syn. Ex. 64, methyl ((1-((3-((5-ethyl-2-(2-hydroxyethoxy)phenyl)sulfonamido)-4-methoxybenzo[d]isoxazol-6-yl)methyl)-1H-pyrazol-4-yl)methyl)carbamate] | 94 | 100 |  | 
C#CC(=O)N1Cc2cn(Cc3cc(OC)c4c(NS(=O)(=O)c5cc(Cl)ccc5OC)noc4c3)nc2C1 [Syn. Ex. 2, 5-chloro-2-methoxy-N-(4-methoxy-6-((5-propioloyl-5,6-dihydropyrrolo[3,4-c]pyrazol-2(4H)-yl)methyl)benzo[d]isoxazol-3-yl)benzenesulfonamide] | 71 | 100 |  | 
CCc1ccc(OCC(=O)O)c(S(=O)(=O)Nc2noc3cc(Cn4cc(CNC(=O)OC)cn4)cc(OC)c23)c1 [Syn. Ex. 62, 2-(4-ethyl-2-(N-(4-methoxy-6-((4-(((methoxycarbonyl)amino)methyl)-1H-pyrazol-1-yl)methyl)benzo[d]isoxazol-3-yl)sulfamoyl)phenoxy)acetic acid] | 100 | 100 |  | 
C=C(F)C(=O)NCc1cnn(Cc2cc(OC)c3c(NS(=O)(=O)c4cc(OC)ccc4OC)noc3c2)c1 [Syn. Ex. 41, N-((1-((3-((2,5-dimethoxyphenyl)sulfonamido)-4-methoxybenzo[d]isoxazol-6-yl)methyl)-1H-pyrazol-4-yl)methyl)-2-fluoroacrylamide] | 87 | 100 |  | 
C#CC(=O)NCc1cnn(Cc2cc(OC)c3c(NS(=O)(=O)c4cc(Cl)c(C)cc4OC)noc3c2)c1 [Syn. Ex. 21, N-((1-((3-((5-chloro-2-methoxy-4-methylphenyl)sulfonamido)-4-methoxybenzo[d]isoxazol-6-yl)methyl)-1H-pyrazol-4-yl)methyl)propiolamide] | 100 | 99 |  | 

More lines, now with the values ahead:

inhibition at 1 µM [%] | inhibition at 10 µM [%] | Average Kat6A % inhibition @ 1 μM [%] | Average Kat6A % inhibition @ 10 μM [%] | SMILES
97 | 100 |  |  | C=C(F)C(=O)NCc1cnn(Cc2cc(OC)c3c(NS(=O)(=O)c4cc(CC)ccc4OCC(=N)NO)noc3c2)c1 [Syn. Ex. 118, N-((1-((3-((5-ethyl-2-(2-(hydroxyamino)-2-iminoethoxy)phenyl)sulfonamido)-4-methoxybenzo[d]isoxazol-6-yl)methyl)-1H-pyrazol-4-yl)methyl)-2-fluoroacrylamide]
106 | 104 |  |  | CCc1ccc(S(=O)(=O)Nc2noc3cc(Cn4cc(CNC(=O)OC)cn4)c4c(c23)OCCC4)c(OC)c1 [Syn. Ex. 140, methyl ((1-((9-((4-ethyl-2-methoxyphenyl)sulfonamido)-3,4-dihydro-2H-chromeno[8,7-d]isoxazol-5-yl)methyl)-1H-pyrazol-4-yl)methyl)carbamate]
100 | 100 |  |  | C=C(F)C(=O)NCc1cnn(Cc2cc(OC)c3c(NS(=O)(=O)c4cc(CC)ccc4OCc4cnn[nH]4)noc3c2)c1 [Syn. Ex. 114, N-((1-((3-((2-((1H-1,2,3-triazol-5-yl)methoxy)-5-ethylphenyl)sulfonamido)-4-methoxybenzo[d]isoxazol-6-yl)methyl)-1H-pyrazol-4-yl)methyl)-2-fluoroacrylamide]
100 | 100 |  |  | COC(=O)NCc1cnn(Cc2cc3onc(NS(=O)(=O)c4cc(F)ccc4OC)c3c3c2CCCO3)c1 [Syn. Ex. 124, methyl ((1-((9-((5-fluoro-2-methoxyphenyl)sulfonamido)-3,4-dihydro-2H-chromeno[8,7-d]isoxazol-5-yl)methyl)-1H-pyrazol-4-yl)methyl)carbamate]
100 | 100 |  |  | C=C(F)C(=O)NCc1cnn(Cc2cc(OC)c3c(NS(=O)(=O)c4cc(CC)ccc4OCCC#N)noc3c2)c1 [Syn. Ex. 84, N-((1-((3-((2-(2-cyanoethoxy)-5-ethylphenyl)sulfonamido)-4-methoxybenzo[d]isoxazol-6-yl)methyl)-1H-pyrazol-4-yl)methyl)-2-fluoroacrylamide]
70 | 98 |  |  | C#Cc1ccc(OC)c(S(=O)(=O)Nc2noc3cc(Cn4cc(CNC(=O)OC)cn4)cc(OC)c23)c1 [Syn. Ex. 112, methyl ((1-((3-((5-ethynyl-2-methoxyphenyl)sulfonamido)-4-methoxybenzo[d]isoxazol-6-yl)methyl)-1H-pyrazol-4-yl)methyl)carbamate]
98 | 100 |  |  | C=C(F)C(=O)NCc1cnn(Cc2cc(OC)c3c(NS(=O)(=O)c4cc(CC)ccc4OCCO)noc3c2)c1 [Syn. Ex. 113, N-((1-((3-((5-ethyl-2-(2-hydroxyethoxy)phenyl)sulfonamido)-4-methoxybenzo[d]isoxazol-6-yl)methyl)-1H-pyrazol-4-yl)methyl)-2-fluoroacrylamide]
100 | 100 |  |  | C=C(F)C(=O)NCc1cnn(Cc2cc(OC)c3c(NS(=O)(=O)c4cc(CC)ccc4OCc4ncc[nH]4)noc3c2)c1 [Syn. Ex. 119, N-((1-((3-((2-((1H-imidazol-2-yl)methoxy)-5-ethylphenyl)sulfonamido)-4-methoxybenzo[d]isoxazol-6-yl)methyl)-1H-pyrazol-4-yl)methyl)-2-fluoroacrylamide]
 |  | 101 | 102 | CCc1ccc(OC)c(S(=O)(=O)Nc2noc3cc(Oc4ncc(CNC(=O)OC)s4)c(OC)cc23)c1 [Syn. Ex. 149, methyl —{N}—[[2-[[3-[(5-ethyl-2-methoxy-phenyl)sulfonylamino]-5-methoxy-1,2-benzoxazol-6-yl]oxy]thiazol-5-yl]methyl]carbamate]
92 | 100 |  |  | CCc1ccc(OC)c(S(=O)(=O)Nc2noc3cc(Oc4ncc(CNC(=O)OC)o4)cc(OC)c23)c1 [Syn. Ex. 100, methyl ((2-((3-((5-ethyl-2-methoxyphenyl)sulfonamido)-4-methoxybenzo[d]isoxazol-6-yl)oxy)oxazol-5-yl)methyl)carbamate]
10 | 44 |  |  | CCc1ccc(OC)c(S(=O)(=O)Nc2noc3cc(Oc4cccc(CNC(=O)OC)n4)cc(OC)c23)c1 [Syn. Ex. 106, methyl ((6-((3-((5-ethyl-2-methoxyphenyl)sulfonamido)-4-methoxybenzo[d]isoxazol-6-yl)oxy)pyridin-2-yl)methyl)carbamate]
 |  | 100 | 99 | COC(=O)NCc1cnn(Cc2cc3onc(NS(=O)(=O)c4cc(C)cc5cccnc45)c3c3c2CCCO3)c1 [Syn. Ex. 132, methyl ((1-((9-((6-methylquinoline)-8-sulfonamido)-3,4-dihydro-2H-chromeno[8,7-d]isoxazol-5-yl)methyl)-1H-pyrazol-4-yl)methyl)carbamate]
104 | 91 |  |  | CCc1ccc(OC)c(S(=O)(=O)Nc2noc3cc(Cn4cc(CNC(=O)OC)cn4)c(F)c(OC)c23)c1 [Syn. Ex. 141, methyl ((1-((3-((5-ethyl-2-methoxyphenyl)sulfonamido)-5-fluoro-4-methoxybenzo[d]isoxazol-6-yl)methyl)-1H-pyrazol-4-yl)methyl)carbamate]
